The Papp A→B is how fast a substance crosses the layer from the apical side. Read a high Papp A→B as ready permeation. The Papp B→A is the apparent permeability from the basolateral to the apical side of a cell layer. As a reminder, the efflux ratio is a quotient of directional permeabilities that is used to spot active efflux.

A short description of the series: in vitro. Format: in vitro ADME. Particulars: human, Caco-2. The gist of the method:
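Permeability measured in both directions across 19-day Caco-2 layers with TEER above 600 […], incubated at 37° C without shaking; donor and receiver sampled at 10 and 90 min for LC/MS/MS. Derived values: Papp (cm/s), efflux ratio, recovery.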
Consider `N#C[C@@]1(c2ccc3c(N)ncnn23)O[C@H](COC(=O)CC2(N)CCCCC2)[C@@H](O)[C@H]1O` [Compound 286, ((2R,3S,4R,5R)-5-(4-aminopyrrolo[2,1-f][1,2,4]triazin-7-yl)-5-cyano-3,4-dihydroxytetrahydrofuran-2-yl)methyl 2-(1-aminocyclohexyl)acetate], for which the Papp A→B at 90 min was found to be 0.01 ×10⁻⁶ cm/s, the Papp B→A at 90 min amounted to 0.4 ×10⁻⁶ cm/s and the efflux ratio at 90 min came to 67.
For the molecule `CC(C)C(=O)OC[C@H]1O[C@@](C#N)(c2ccc3c(N)ncnn23)[C@H](O)[C@@H]1OC(=O)CC1CCCCC1` [Compound 58, ((2R,3S,4R,5R)-5-(4-aminopyrrolo[2,1-f][1,2,4]triazin-7-yl)-5-cyano-3-(2-cyclohexylacetoxy)-4-hydroxytetrahydrofuran-2-yl)methyl isobutyrate], the Papp A→B at 90 min was 4.1 ×10⁻⁶ cm/s, the Papp B→A at 90 min is 2.1 ×10⁻⁶ cm/s and the efflux ratio at 90 min is 0.5.
The matching figures for `CC(C)(C)C(=O)OCOC(=O)Nc1ncnn2c([C@]3(C#N)O[C@H](CO)[C@@H](OC(=O)CC4CCCCC4)[C@H]3O)ccc12` [Compound 370, (((7-((2R,3R,4S,5R)-2-cyano-4-(2-cyclohexylacetoxy)-3-hydroxy-5-(hydroxymethyl)tetrahydrofuran-2-yl)pyrrolo[2,1-f][1,2,4]triazin-4-yl)carbamoyl)oxy)methyl pivalate]: 0.3 ×10⁻⁶ cm/s, 0.23 ×10⁻⁶ cm/s and 0.77.
The matching figures for `CCCCCOC(=O)Nc1ncnn2c([C@]3(C#N)O[C@H](COC(=O)CC4CCCCC4)[C@@H](O)[C@H]3O)ccc12` [Compound 88, ((2R,3S,4R,5R)-5-cyano-3,4-dihydroxy-5-(4-(((pentyloxy)carbonyl)amino)pyrrolo[2,1-f][1,2,4]triazin-7-yl)tetrahydrofuran-2-yl)methyl 2-cyclohexylacetate]: 2.1 ×10⁻⁶ cm/s, 1.6 ×10⁻⁶ cm/s and 0.78.
For `N#C[C@@]1(c2ccc3c(NC(=O)[C@@H](N)Cc4ccc(F)cc4)ncnn23)O[C@H](CO)[C@@H](OC(=O)CC2(N)CCCCC2)[C@H]1O` [Compound 345, (2R,3S,4R,5R)-5-(4-((S)-2-amino-3-(4-fluorophenyl)propanamido)pyrrolo[2,1-f][1,2,4]triazin-7-yl)-5-cyano-4-hydroxy-2-(hydroxymethyl)tetrahydrofuran-3-yl 2-(1-aminocyclohexyl)acetate] the same measures were 0.09 ×10⁻⁶ cm/s, 3.9 ×10⁻⁶ cm/s and 43.
For `CCCCC(=O)Nc1ncnn2c([C@]3(C#N)O[C@H](COC(C)=O)[C@@H](O)[C@H]3O)ccc12` [Compound 288, ((2R,3S,4R,5R)-5-cyano-3,4-dihydroxy-5-(4-pentanamidopyrrolo[2,1-f][1,2,4]triazin-7-yl)tetrahydrofuran-2-yl)methyl acetate], the Papp A→B at 90 min came out at 0.91 ×10⁻⁶ cm/s, the Papp B→A at 90 min was determined as 6.9 ×10⁻⁶ cm/s and the efflux ratio at 90 min was 7.7.
For `CCC(=O)Nc1nc(NC)c2ncn([C@@H]3O[C@H](COC(C)=O)[C@@H](O)[C@@]3(C)F)c2n1` [Compound 330, ((2R,3R,4R,5R)-4-fluoro-3-hydroxy-4-methyl-5-(6-(methylamino)-2-propionamido-9H-purin-9-yl)tetrahydrofuran-2-yl)methyl acetate] the same measures were 0.54 ×10⁻⁶ cm/s, 7 ×10⁻⁶ cm/s and 13.
For `CC(C)(C)C(=O)OCOC(=O)Nc1ncnn2c([C@]3(C#N)O[C@H](COC(=O)[C@@H](N)Cc4ccccc4)[C@@H](OC(=O)CC4CCCCC4)[C@H]3O)ccc12` [Compound 374, (((7-((2R,3R,4S,5R)-5-(((L-phenylalanyl)oxy)methyl)-2-cyano-4-(2-cyclohexylacetoxy)-3-hydroxytetrahydrofuran-2-yl)pyrrolo[2,1-f][1,2,4]triazin-4-yl)carbamoyl)oxy)methyl pivalate] the same measures were 0.004 ×10⁻⁶ cm/s, 0.08 ×10⁻⁶ cm/s and 19.
For `CC(C)[C@H](N)C(=O)O[C@H]1[C@@H](OC(=O)[C@@H](N)C(C)C)[C@](C#N)(c2ccc3c(N)ncnn23)O[C@@H]1COC(=O)CC1CCCCC1` [Compound 356, (2R,3R,4R,5R)-2-(4-aminopyrrolo[2,1-f][1,2,4]triazin-7-yl)-2-cyano-5-((2-cyclohexylacetoxy)methyl)tetrahydrofuran-3,4-diyl (2S,2'S)-bis(2-amino-3-methylbutanoate)] the same measures were 0.6 ×10⁻⁶ cm/s, 3.6 ×10⁻⁶ cm/s and 6.
In the case of `CC(C)CC(=O)OC[C@H]1O[C@@](C#N)(c2ccc3c(N)ncnn23)[C@H](O)[C@@H]1OCOC(=O)C(C)(C)C` [Compound 24, ((2R,3S,4R,5R)-5-(4-aminopyrrolo[2,1-f][1,2,4]triazin-7-yl)-5-cyano-4-hydroxy-3-((pivaloyloxy)methoxy)tetrahydrofuran-2-yl)methyl 3-methylbutanoate], the Papp A→B at 90 min is 8.1 ×10⁻⁶ cm/s, the Papp B→A at 90 min was 3.6 ×10⁻⁶ cm/s and the efflux ratio at 90 min was 0.44.
For `CNc1nc(N)nc2c1ncn2[C@@H]1O[C@H](COC(=O)CC(C)C)[C@@H](OC(=O)CC(C)C)[C@@]1(C)F` [Compound 312, (2R,3R,4R,5R)-5-(2-amino-6-(methylamino)-9H-purin-9-yl)-4-fluoro-4-methyl-2-(((3-methylbutanoyl)oxy)methyl)tetrahydrofuran-3-yl 3-methylbutanoate] the same measures were 23 ×10⁻⁶ cm/s, 6.5 ×10⁻⁶ cm/s and 0.28.
For `CC(C)(C)C(=O)OCOC(=O)Nc1ncnn2c([C@]3(C#N)O[C@H](COC(=O)[C@@H](N)C(C)(C)C)[C@@H](O)[C@H]3O)ccc12` [Compound 395, ((2R,3S,4R,5R)-5-cyano-3,4-dihydroxy-5-(4-((((pivaloyloxy)methoxy)carbonyl)amino)pyrrolo[2,1-f][1,2,4]triazin-7-yl)tetrahydrofuran-2-yl)methyl (S)-2-amino-3,3-dimethylbutanoate] the same measures were 0.01 ×10⁻⁶ cm/s, 0.24 ×10⁻⁶ cm/s and 19.2.
The matching figures for `CNc1nc(N)nc2c1ncn2[C@@H]1O[C@H](COC(=O)CC2CCCCC2)[C@@H](OC(C)=O)[C@@]1(C)F` [Compound 215, ((2R,3R,4R,5R)-3-acetoxy-5-(2-amino-6-(methylamino)-9H-purin-9-yl)-4-fluoro-4-methyltetrahydrofuran-2-yl)methyl 2-cyclohexylacetate]: 9.3 ×10⁻⁶ cm/s, 1.6 ×10⁻⁶ cm/s and 0.18.
Regarding `CCC(=O)OC[C@H]1O[C@@](C#N)(c2ccc3c(N)ncnn23)[C@H](O)[C@@H]1OC(=O)CC1CCCCC1` [Compound 66, [(2R,3S,4R,5R)-5-{4-aminopyrrolo[2,1-f][1,2,4]triazin-7-yl}-5-cyano-3-[(2-cyclohexylacetyl)oxy]-4-hydroxyoxolan-2-yl]methyl propanoate], the Papp A→B at 90 min amounted to 2.7 ×10⁻⁶ cm/s, the Papp B→A at 90 min was 0.36 ×10⁻⁶ cm/s and the efflux ratio at 90 min was found to be 0.13.
As to `CC(C)C(=O)OC[C@H]1O[C@@](C#N)(c2ccc3c(N)ncnn23)[C@H](O)[C@@H]1O` [Compound 14, ((2R,3S,4R,5R)-5-(4-aminopyrrolo[2,1-f][1,2,4]triazin-7-yl)-5-cyano-3,4-dihydroxytetrahydrofuran-2-yl)methyl isobutyrate], the Papp A→B at 90 min is 2.3 ×10⁻⁶ cm/s, the Papp B→A at 90 min stood at 2.2 ×10⁻⁶ cm/s and the efflux ratio at 90 min was determined as 1.
For the molecule `CNc1nc(N)nc2c1ncn2[C@@H]1O[C@H](COC(=O)CC2CCCCC2)[C@@H](OC(=O)C(C)C)[C@@]1(C)F` [Compound 223, (2R,3R,4R,5R)-5-[2-amino-6-(methylamino)purin-9-yl]-2-{[(2-cyclohexylacetyl)oxy]methyl}-4-fluoro-4-methyloxolan-3-yl 2-methylpropanoate], the Papp A→B at 90 min is 20 ×10⁻⁶ cm/s, the Papp B→A at 90 min amounted to 6.9 ×10⁻⁶ cm/s and the efflux ratio at 90 min was 0.34.
For `CN(C(=O)CC1CCCCC1)c1nc(N)nc2c1ncn2[C@@H]1O[C@H](COC(=O)CC2CCCCC2)[C@@H](O)[C@@]1(C)F` [Compound 291, ((2R,3R,4R,5R)-5-(2-amino-6-(2-cyclohexyl-N-methylacetamido)-9H-purin-9-yl)-4-fluoro-3-hydroxy-4-methyltetrahydrofuran-2-yl)methyl 2-cyclohexylacetate] the same measures were 11 ×10⁻⁶ cm/s, 17 ×10⁻⁶ cm/s and 1.6.
The matching figures for `N#C[C@@]1(c2ccc3c(N)ncnn23)O[C@H](COC(=O)CC2CCNCC2)[C@@H](O)[C@H]1O` [Compound 267]: 0.42 ×10⁻⁶ cm/s, 0.27 ×10⁻⁶ cm/s and 0.65.
As for `CCC(=O)OC[C@H]1O[C@@H](n2cnc3c(NC)nc(N)nc32)[C@](C)(F)[C@@H]1OC(C)=O` [Compound 220, ((2R,3R,4R,5R)-3-acetoxy-5-(2-amino-6-(methylamino)-9H-purin-9-yl)-4-fluoro-4-methyltetrahydrofuran-2-yl)methyl propionate], the Papp A→B at 90 min turned out to be 20 ×10⁻⁶ cm/s, the Papp B→A at 90 min was 13 ×10⁻⁶ cm/s and the efflux ratio at 90 min was found to be 0.64.
For the molecule `CC(C)(C)C(=O)OCOC(=O)Nc1ncnn2c([C@]3(C#N)O[C@H](COC(=O)CC4(N)CCCCC4)[C@@H](O)[C@H]3O)ccc12` [Compound 367, (((7-((2R,3R,4S,5R)-5-((2-(1-aminocyclohexyl)acetoxy)methyl)-2-cyano-3,4-dihydroxytetrahydrofuran-2-yl)pyrrolo[2,1-f][1,2,4]triazin-4-yl)carbamoyl)oxy)methyl pivalate], the Papp A→B at 90 min turned out to be 2.8 ×10⁻⁶ cm/s, the apparent permeability from basolateral to apical (Papp B→A) at 90 min amounted to 1.6 ×10⁻⁶ cm/s and the efflux ratio at 90 min came out at 0.57.
